EP1350507A1, “Delivery of a substance to a pre-determinated site” (Applied NanoSystems B.V., priority 2002, dated 2003)

Key:
[1] = Solvent scope of N,N'-dialkylaldaramides or N,N'-dialkylpentaramides (gelation behaviour in solvents); format: physicochemical
Description: It will be understood that the use of the present gelling agents or thickeners to prepare a gel or to thicken a composition is also encompassed by the invention. As is well-known, gelling behavior of compounds or compositions is highly unpredictable. […] Preferably, the gelling phenomenon is thermoreversible.
(§1) Preferred examples include aromatic and non-aromatic hydrocarbons, alcohols, ethers, esters, aldehydes, alkanoic acids, epoxides, amines, halogenated hydrocarbons, silicon oils, vegetable oils, phosphoric esters, sulfoxides and mixtures thereof. The compound also produces a gel in hydrophilic solvents such as water. The choice of composition for gelling can be tuned to the invented use. For instance in situations where clinical application of a vehicle of the invention is intended biocompatibility of the composition is preferred. In order to obtain a gel, the gelling agent or thickener is preferably mixed with the composition to be transformed to a gel in an amount of between 0.01 and 50 wt.%, based on the weight of the composition. In a preferred embodiment the mixture of the gelling agent or thickener and the composition is heated to allow for an even better gel formation or thickening. Typically, the heating will involve raising the temperature of the mixture to about 30 - 175 °C until a clear solution is obtained. In an alternative embodiment, the gelling agent is first dissolved in a polar or apolar solvent and then added to or sprayed into a composition or solvent to be converted into a gel.

[2] = Concentration range of N,N'-dialkylaldaramides or N,N'-dialkylpentaramides in solvents; format: physicochemical
Description: as §1

[3] = Gelation experiment with dithienylcyclopentene derivatives (heat, cool, no gravitational flow; UV-vis/CD); format: physicochemical; details: for Solvents in which gelation did occur: cooling to room temperature, 1 ml solvent
Experimental: In a typical gelation experiment, a carefully weighed amount of the dithienylcyclopentene derivative under investigation and 1 ml of the solvent are placed in a test tube, which is sealed and then heated until the compound is dissolved. The solution is allowed to cool to room temperature. […] The gelation process could be followed by UV-vis and CD spectroscopy as depicted in Figure 23. […] Increasing the concentration to 1.8 mM causes gelation of the solvent, which is accompanied by a change of the UV-visible spectrum, together with the appearance of a strong CD signal at 323 nm (Figure 22 A and B). Similar changes in the UV-vis and CD spectrum are observed upon gelation of the 1.8 mM solution of D in toluene by cooling to a temperature below the sol-gel phase transition(from here on referred to as gel(o). From a plot of the increase of the CD signal versus the temperature the sol-gel phase transition temperature of gel(o) was determined to be 29°C for a 1.8 mM solution of D in toluene.

[4] = Photoswitching of a gel of compound D; format: physicochemical
Experimental: In a typical photoswitching experiment a solution (1.8 mM) of Compound D in toluene was prepared by cooling from 70°C to the desired temperature (typically between 30°C and 60°C, i.e. above the gel-sol phase transition temperature of the open form of D) in a cuvette of 1 mm path length. This solution was then irradiated at λ1 = 313 nm to convert the ring-open form of Compound D to the ring-closed form. By using a 150 W Xe lamp and a 313 nm bandpass filter, the photostationary state (PSS) was reached typically within 10 minutes, which consist of 60mol% of the closed form and 40mol% of the open form.
Gels of the closed form of D can also be dissolved by converting the closed form to the open form by irradiation with light of wavelength □□. Irradiation of gel(c,I) or gel(c,II) with □□ > 450 nm at while keeping the temperature between 30°C and 60°C causes dissolution of the gel to give a solution of the open form D, of which the UV-vis and CD spectra are identical to that of the starting solution. This process of gelation-dissolution by alternating irradiations with UV (313 nm) and Vis (> 450 nm) light can be repeated many times, showing that the photo-induced gelation process is fully reversible. In another experiment a solution (1.8 mM) of Compound D in toluene was prepared by cooling from 70°C to a temperature below the gel-sol phase transition temperature of the open form of (typically between 20°C and 29°C) in a cuvette of 1 mm path length.

COS-7 cells [5] = assay: Transfection of COS-7 cells with β-galactosidase reporter plasmid; format: cell-based
Experimental: Transfections are carried out following standard protocols as is described in EP 0755924. In numerous publications variations of transfection protocols are given. A person acquainted with the field of non-viral transfections, in particular transfections using cationic amphiphiles will be able to use the cationic amphiphiles of the invention in transfection methods known per se. In standard experiments COS-7 cells are transfected with plasmid DNA containing the β-galactosidase reporter gene. Upon successful transfection the cell produces the enzyme β-galactosidase whose activity can be easily measured. […] Toxicity of the cationic amphiphiles towards the cells can be monitored qualitatively and quantitatively by visual inspection of the cells and by a protein determination.
[…] The plasmid concentration was determined by measuring the absoption at 260 nm using the relation 1.0 OD = 50 µg/ml. […]
The complex of cationic amphiphile/DOPE (1:1) with pCMV β-gal was prepared at the charge ratio 2.5:1 (15 nmol lipid and 1 µg DNA), in 100µl 10 mM HEPES (pH=7.4, 150 mM NaCl). […] Control wells underwent identical steps except that no cationic amphiphile was added. β-galactosidase activity was observed whereas in control wells no activity was detected. […]

COS-7 cells [6] = assay: Toxicity of cationic amphiphile towards the cells (protein determination); format: cell-based; details: protein determination compared with control wells
Experimental: Transfections are carried out following standard protocols as is described in EP 0755924. In numerous publications variations of transfection protocols are given. A person acquainted with the field of non-viral transfections, in particular transfections using cationic amphiphiles will be able to use the cationic amphiphiles of the invention in transfection methods known per se. In standard experiments COS-7 cells are transfected with plasmid DNA containing the β-galactosidase reporter gene. Upon successful transfection the cell produces the enzyme β-galactosidase whose activity can be easily measured. Other plasmids comprising alternative reporter genes such as the gene encoding Green Fluoerscent Protein or Chloroamphenicol Acetyl Transferase are suited as well. For analyzing stable transfection a plasmid containing the neomycin resistance gene can be used. Toxicity of the cationic amphiphiles towards the cells can be monitored qualitatively and quantitatively by visual inspection of the cells and by a protein determination.
The complex of cationic amphiphile/DOPE (1:1) with pCMV β-gal was prepared at the charge ratio 2.5:1 (15 nmol lipid and 1 µg DNA), in 100µl 10 mM HEPES (pH=7.4, 150 mM NaCl). […] Control wells underwent identical steps except that no cationic amphiphile was added. β-galactosidase activity was observed whereas in control wells no activity was detected.

[7] = 1.8 mM in toluene, irradiation at 313 nm

## O=C(NC1CCCCCCCCCCC1)[C@@H](O)[C@@H](O)[C@H](O)[C@@H](O)C(=O)NC1CCCCCCCCCCC1 [Compound C12GluC12, dicyclododecyl glucaramide]
[1]; Dimethylsulfoxide
  Solvent scope: g/c.
[1]; Ethanol
  Solvent scope: g/c.
[1]; water
  Solvent scope: n.s.
[2]; 1,2- Dichloroethane
  Concentration range: <50%.
[2]; Cyclohexane
  Concentration range: <5%.
[2]; Dow Corning 702
  Concentration range: <50%
[2]; Methyllaurate
  Concentration range: <5%.
[2]; Toluene
  Concentration range: <50%.
[2]; n-Butylacetate
  Concentration range: <50%.

## O=C(NC1CCCCC1)[C@@H](O)[C@@H](O)[C@H](O)[C@@H](O)C(=O)NC1CCCCC1 [Compound C6GluC6, dicyclohexyl glucaramide]
[1]; 1,2-Dichloro-ethane
  Solvent scope: g/c.
[1]; Dimethylsulfoxide
  Solvent scope: g/c.
[1]; Ethanol
  Solvent scope: g/c.
[1]; water
  Solvent scope: n.s.
[2]; 1,2- Dichloroethane
  Concentration range: <5.0%.
[2]; Cyclohexane
  Concentration range: <2.5%.
[2]; Dow Corning 702
  Concentration range: <2.5%.
[2]; Methyllaurate
  Concentration range: <2.5%.
[2]; Toluene
  Concentration range: <2.5%.
[2]; n-Butylacetate
  Concentration range: <2.5%.

## CCCCCCCCCCCCNC(=O)[C@@H](O)[C@H](O)[C@H](O)[C@@H](O)C(=O)NCCCCCCCCCCCC [Compound 12Gal12, didodecyl galactaramide]
[1]; 1,2-Dichloro-ethane
  Solvent scope: n.s.
[1]; Cyclohexane
  Solvent scope: n.s.
[1]; Ethanol
  Solvent scope: n.s.
[1]; Toluene
  Solvent scope: n.s.
[1]; n-Butylacetate
  Solvent scope: n.s.
[1]; water
  Solvent scope: n.s.

## Cc1sc(C(=O)N[C@H](C)c2ccccc2)cc1C1=C(c2cc(C(=O)N[C@H](C)c3ccccc3)sc2C)CCC1 [Compound D, 1,2-Bis(2'-methyl-5'-{[((R)-1-phenylethyl)amino]carbonyl}thien-3'-yl)cyclopentene]
[3]; 1.8 mM solution in toluene, open form, from CD signal versus temperature
  sol-gel phase transition temperature of gel(o): 29 °C
[3]; Toluene
  Concentration that causes gelation of the solvent: 1.8 mM
[3]
  Solvents in which gelation did occur: cyclohexane, 1-phenyloctane, toluene, n-butyl ether, benzene, tetralin
[4]; 1.8 mM in toluene after irradiation at 313 nm
  sol-gel phase transition temperature of gel(c,I): 62 °C
[4]; 1.8 mM in toluene, between 20°C and 29°C, not irradiated
  Time without gel formation, solutions kept in the dark: > 1 h
[4]; [7]
  closed form in the photostationary state (PSS): 60 mol%
  open form in the photostationary state (PSS): 40 mol%
[4]; 1.8 mM in toluene, irradiation at 313 nm, 150 W Xe lamp
  Time to reach the photostationary state (PSS): ≤ 10 min
[4]; gel(c,I), toluene
  Increase of thermal stability compared to gel(o): more than 30 °C

## Cc1sc(C(=O)Nc2ccccc2)cc1C1=C(c2cc(C(=O)Nc3ccccc3)sc2C)CCC1 [Compound C, 1,2-Bis(5'-(anilinocarbonyl)-2'-methyl-thien-3'-yl) cyclopentene]
[3]
  Solvents in which gelation did occur: 1-phenyloctane, toluene, n-butylether, benzene, tetralin

## CC(C)=CCCC(C)CCNC(=O)[C@@H](O)[C@@H](O)[C@H](O)[C@@H](O)C(=O)NCCC(C)CCC=C(C)C (stereo partly shown) [CitGluCit, dicitronellyl glucaramide]
[1]; Cyclohexane
  Solvent scope: g. ,c*.

## 1-(9'-cis-octadecenyl)-4-(10"-cis-nonadecenyl) pyridinium Chloride
COS-7 cells [5]; cationic amphiphile/DOPE (1:1) with pCMV β-gal, charge ratio 2.5:1, assay 48 later
  β-galactosidase activity: observed
COS-7 cells [5]; cationic amphiphile/DOPE (1:1), charge ratio 2.5:1
  β-galactosidase activity compared with Lipofectin™: substantially higher
COS-7 cells [6]
  toxicity towards the cells: no toxicity

## Cc1sc(C(=O)N[C@H](C)C2CCCCC2)cc1C1=C(c2cc(C(=O)N[C@H](C)C3CCCCC3)sc2C)CCC1 [Compound E, 1,2-Bis(2'-methyl-5'-{[((R)-1-cyclohexylethyl)amino]carbonyl}thien-3'-yl)cyclopentene]
[3]
  Solvents in which gelation did occur: hexadecane, cyclohexane, 1-phenyloctane, toluene, n-butylether, benzene, tetralin, 1,4-dioxane, and n-butyl acetate
